Entries after “also recorded” stand apart in the source; their conditions may differ.
What was measured:
Assay type in all cases: in vivo, C57BL/6 (B6) mice
Conditions in all cases: vs PBS
[1] = test system: mRNA levels in P. aeruginosa ATCC strain 19660 infected cornea; assay: Real time RT-PCR of cornea, strain 19660 infection
Experimental: (§1) The left eyes of B6 mice (n=5/group/time) were injected with 5 μl of 2 μg/μl glycyrrhizin (GLY) (Sigma-Aldrich, St. Louis, Mo.) or PBS (control) subconjunctivally, one day before infection. Similar treatment was done using carbenoxolone (CBX) (Sigma-Aldrich, St. Louis, Mo.). All mice were injected intraperitoneally (IP) at 1 and 3 days p.i. with 100 μl of GLY (2 μg/μl) or CBX (1 μg/μl). PBS served as control for all these experiments. In a separate similar experiment mice were treated one day before infection with GLY subconjunctivally and injected intraperitoneally (i.p.) with GLY plus recombinant (r) HMGB1 (1 μg/100 μl) or GLY plus PBS. IP injections were similarly given at 1 and 3 days p.i. In an additional experiment, KEI 1025 infected B6 mice were treated with 5 μl of 2 μg/μl GLY subconjunctivally at 6 hours p.i. and injected intraperitoneally at 1 and 3 days p.i. with 100 μl of GLY (2 μg/μl).
KEI 1025 or ATCC strain 19660 infected GLY or PBS treated mice were sacrificed at 5 days p.i. and the normal, contralateral (uninfected) and infected cornea was harvested. For each cornea, total RNA was isolated (RNA STAT-60™; Tel-Test, Friendswood, Tex.) according to the manufacturer's instructions. Upon spectrophotometric quantification at 260 nm, 1 μg of each RNA sample was reverse transcribed using Moloney-murine leukemia virus (M-MLV) reverse transcriptase (Invitrogen, Carlsbad, Calif.) to produce a cDNA template for the PCR reaction. cDNA products were diluted 1:25 with diethylpyrocarbonate (DEPC)-treated water. A 2 μl aliquot of diluted cDNA was used for the real-time RT-PCR reaction with Real-Time SYBR® Green/Fluorescein PCR Master Mix (Bio-Rad) and primer concentrations of 10 μM (total 10 μl reaction volume). After a pre-programmed hot start cycle (3 min at 95° C.), the parameters used for PCR amplification were: 15 sec at 95° C. and 60 sec at 60° C. with the cycles repeated 45 times. Optimal conditions for PCR amplification of cDNA were established using routine methods. mRNA levels of HMGB1, RAGE, IL-1β, TLR2, TLR4, CXCL2, TNF-α, NLR family pyrin domain containing 3 (NLRP3), NLR family CARD domain containing 4 (NLRC4), IL-12, TGF-β, IL-10, single Ig IL-1-related receptor (SIGIRR) and interleukin 1 receptor-like 1 (ST2) were tested by real-time RT-PCR (CFX Connect™ Real-Time PCR Detection System; Bio-Rad, Richmond, Calif.). The fold differences in gene expression were calculated after normalization to β-actin and expressed as the relative mRNA concentration+SEM.

[2] = test system: P. aeruginosa KEI 1025 infected cornea; assay: Histopathology of eyes infected with KEI 1025
Experimental: as §1
Whole eyes infected with KEI 1025 (n=3/group/time) were enucleated from GLY or PBS treated B6 mice at 3 and 5 days p.i. Eyes were immersed in PBS, rinsed, and fixed in 1% osmium tetroxide, 2.5% glutaraldehyde, and 0.2 M Sorenson's phosphate buffer (pH 7.4) (1:1:1) at 4° C. for 3 h. Eyes were rinsed with 0.1 M phosphate buffer, dehydrated in graded ethanols and propylene oxide, and then infiltrated and embedded in Epon-araldite. Thick sections (1.5 μm) were cut, stained with Richardson's stain, observed, and photographed (Leica DM4000B, Leica Microsystems, Inc.).
The left eyes of B6 mice (n=5/group/time) were infected as above with Pseudomonas KEI 1025 strain. These infected B6 mice were treated by topical administration of GLY. Pseudomonas aeruginosa infected left cornea received 5 μL of GLY (20 μg/μL) topically beginning 6 (or 8) hours post infection and continued 2× daily for days 1-4 post infection.

[3] = test system: protein levels in P. aeruginosa ATCC strain 19660 infected cornea; assay: ELISA of corneal proteins, strain 19660 infection
Experimental: as §1
KEI 1025 or ATCC strain 19660 infected GLY or PBS treated, B6 mice (n=5/group/time) were sacrificed at 3 and 5 days p.i. and normal and infected corneas harvested. To quantify IL-1β and CXCL2 proteins, individual corneas were homogenized in 1 ml of 50 mM potassium phosphate buffer (pH 6.0) containing 0.5% HTAB (hexadecyltrimethylammonium bromide, Sigma). To quantify HMGB1, cathelicidin-related antimicrobial peptide (CRAMP), mouse beta defensin 2 (mBD2) and mouse beta defensin 3 (mBD3) protein levels, individual corneas were homogenized in 500 μl of PBS containing 0.1% Tween 20 (Sigma) and protease inhibitors (Roche, Indianapolis, Ind.). Corneal homogenates were centrifuged at 12,000 g for 10 min. A 50 μl aliquot of each supernatant was assayed in duplicate to quantify IL-1β, CXCL2, HMGB1 and mBD2 proteins. A 100 μl aliquot of CRAMP and mBD3 supernatant was assayed in duplicate to quantify corresponding protein levels. Undiluted supernatant aliquots were used to quantify all proteins except CXCL2 (1:2 dilution) and HMGB1 (1:5 dilution). An HMGB1 ELISA kit was purchased from Chondrex Inc., Redmond, Wash. CRAMP, mBD2 and mBD3 ELISA kits were purchased from MyBioSource, Inc., San Diego, Calif. All other ELISA kits were purchased from R&D Systems, Minneapolis, Minn. Assays were run following the manufacturer's instructions. Sensitivities of the assays were: 2.31 […] (mBD3).

[4] = strain 19660 experiment, normal cornea

## CC1(C)[C@@H](O[C@H]2O[C@H](C(=O)O)[C@@H](O)[C@H](O)[C@H]2O[C@@H]2O[C@H](C(=O)O)[C@@H](O)[C@H](O)[C@H]2O)CC[C@]2(C)[C@H]3C(=O)C=C4[C@@H]5C[C@@](C)(C(=O)O)CC[C@]5(C)CC[C@@]4(C)[C@]3(C)CC[C@@H]12 [GLY, glycyrrhizin]
[1]; strain 19660, 5 days p.i.
  mRNA levels of CXCL2: slightly, but not significantly decreased
[1]; strain 19660, infected cornea 5 days p.i.
  Relative mRNA levels for HMGB1: no different
[1]; [4]
  CXCL2 mRNA: No differences
[1]; strain 19660 experiment, uninfected, normal cornea
  Relative mRNA levels for HMGB1: no different
[2]; pretreatment subconj. + IP, 3 days p.i.
  histopathology: cellular infiltrate, corneal destruction: markedly reduced cellular infiltrate; also recorded: reduced corneal destruction and infiltrate
[2]; pretreatment subconj. + IP, 5 days p.i.
  histopathology: cellular infiltrate, damage to the cornea: markedly reduced cellular infiltrate; also recorded: reduced damage to the cornea and a decreased cellular infiltrate
[2]; topical GLY from 6 hours p.i. and days 1-4 twice each day, 5 days p.i.
  histopathology: damage to the cornea, cellular infiltrate: reduced damage to the cornea and a decreased cellular infiltrate
[3]; strain 19660, 3 days p.i.
  CXCL2 protein levels: downregulated significantly
[3]; strain 19660, 5 days p.i.
  CXCL2 protein levels: downregulated significantly
[3]; strain 19660, normal cornea and infected groups
  HMGB1 protein: no significant differences
[3]; [4]
  CXCL2 protein: No differences

From patent publication US10500222B2, “Compositions and methods relating to treatment of infection” (Wayne State University, priority 2015, dated 2019)
